# Tested on: Aspergillus flavus
# Experiment: microbe, parasite or virus in culture
# Assay type: cell-based
SMILES,"effect on growth of the fungi, in words","inhibition at 50 µg/mL (Aspergillus flavus, 168 h, read-out: percentage of inhibition of growth of the fungi (Aspergillus flavus)) [%]"
"NC(=NO)c1ccc2nc(-c3ccco3)[nH]c2c1 [6-AFBD, 2-(2-Furyl) benzimidazole-6-carboxamidoxime]",does not inhibit the growth,
"O=C(O)c1ccc2nc(-c3ccco3)[nH]c2c1 [6-CAFBD, 2-(2-Furyl) benzimidazole-6-carboxylic acid]",does not inhibit the growth,
"O=[N+]([O-])c1ccc2nc(-c3ccco3)[nH]c2c1 [6-NFBD, 2-(2-Furyl)-6-nitrobenzimidazole]",does not inhibit the growth,
"c1coc(-c2nc3ccccc3[nH]2)c1 [FBD, 2-(2-Furyl)benzimidazole]",,100

# From patent US20180317484A1 (priority 2017, published 2018)
